N#CCc1ccccc1[N+](=O)[O-]
Conditions | solubility (mole fraction)
in 1,4-dioxane, 288.15 K | 0.216
in 1,4-dioxane, 293.15 K | 0.226
in 1,4-dioxane, 298.15 K | 0.241
in 1,4-dioxane, 303.15 K | 0.257
in 1,4-dioxane, 308.15 K | 0.278
in 1,4-dioxane, 313.15 K | 0.303
in 1,4-dioxane, 318.15 K | 0.334
in 1,4-dioxane, 323.15 K | 0.371
in 1,4-dioxane, 328.15 K | 0.414
in 1,4-dioxane, 333.15 K | 0.469
in 2-butanone, 278.15 K | 0.108
in 2-butanone, 283.15 K | 0.128
in 2-butanone, 288.15 K | 0.151
in 2-butanone, 293.15 K | 0.173
in 2-butanone, 298.15 K | 0.197
in 2-butanone, 303.15 K | 0.235
in 2-butanone, 308.15 K | 0.269
in 2-butanone, 313.15 K | 0.312
in 2-butanone, 318.15 K | 0.357
in 2-butanone, 323.15 K | 0.422
in 2-butanone, 328.15 K | 0.475
in 2-butanone, 333.15 K | 0.543
in acetic acid, 293.15 K | 0.0478
in acetic acid, 298.15 K | 0.0574
in acetic acid, 303.15 K | 0.0694
in acetic acid, 308.15 K | 0.0846
in acetic acid, 313.15 K | 0.104
in acetic acid, 318.15 K | 0.128
in acetic acid, 323.15 K | 0.158
in acetic acid, 328.15 K | 0.196
in acetic acid, 333.15 K | 0.244
in acetone, 278.15 K | 0.13
in acetone, 283.15 K | 0.147
in acetone, 288.15 K | 0.171
in acetone, 293.15 K | 0.194
in acetone, 298.15 K | 0.227
in acetone, 303.15 K | 0.259
in acetone, 308.15 K | 0.295
in acetone, 313.15 K | 0.342
in acetone, 318.15 K | 0.385
in acetone, 323.15 K | 0.439
in acetone, 328.15 K | 0.506
in acetonitrile, 278.15 K | 0.0932
in acetonitrile, 283.15 K | 0.107
in acetonitrile, 288.15 K | 0.124
in acetonitrile, 293.15 K | 0.143
in acetonitrile, 298.15 K | 0.168
in acetonitrile, 303.15 K | 0.195
in acetonitrile, 308.15 K | 0.228
in acetonitrile, 313.15 K | 0.264
in acetonitrile, 318.15 K | 0.31
in acetonitrile, 323.15 K | 0.362
in acetonitrile, 328.15 K | 0.424
in acetonitrile, 333.15 K | 0.498
in ethanol, 278.15 K | 0.00458
in ethanol, 283.15 K | 0.00566
in ethanol, 288.15 K | 0.00705
in ethanol, 293.15 K | 0.00939
in ethanol, 298.15 K | 0.0118
in ethanol, 303.15 K | 0.0156
in ethanol, 308.15 K | 0.0213
in ethanol, 313.15 K | 0.0277
in ethanol, 318.15 K | 0.0383
in ethanol, 323.15 K | 0.0487
in ethanol, 328.15 K | 0.0649
in ethanol, 333.15 K | 0.0838
in ethyl acetate, 278.15 K | 0.13
in ethyl acetate, 283.15 K | 0.142
in ethyl acetate, 288.15 K | 0.16
in ethyl acetate, 293.15 K | 0.177
in ethyl acetate, 298.15 K | 0.199
in ethyl acetate, 303.15 K | 0.219
in ethyl acetate, 308.15 K | 0.246
in ethyl acetate, 313.15 K | 0.278
in ethyl acetate, 318.15 K | 0.313
in ethyl acetate, 323.15 K | 0.357
in ethyl acetate, 328.15 K | 0.407
in ethyl acetate, 333.15 K | 0.466
in ethylbenzene, 278.15 K | 0.0237
in ethylbenzene, 283.15 K | 0.0285
in ethylbenzene, 288.15 K | 0.0346
in ethylbenzene, 293.15 K | 0.0423
in ethylbenzene, 298.15 K | 0.052
in ethylbenzene, 303.15 K | 0.0644
in ethylbenzene, 308.15 K | 0.0803
in ethylbenzene, 313.15 K | 0.101
in ethylbenzene, 318.15 K | 0.126
in ethylbenzene, 323.15 K | 0.16
in ethylbenzene, 328.15 K | 0.204
in ethylbenzene, 333.15 K | 0.26
in isobutanol, 278.15 K | 0.00332
in isobutanol, 283.15 K | 0.00416
in isobutanol, 288.15 K | 0.00491
in isobutanol, 293.15 K | 0.00639
in isobutanol, 298.15 K | 0.00803
in isobutanol, 303.15 K | 0.0102
in isobutanol, 308.15 K | 0.013
in isobutanol, 313.15 K | 0.0171
in isobutanol, 318.15 K | 0.0228
in isobutanol, 323.15 K | 0.0303
in isobutanol, 328.15 K | 0.0404
in isobutanol, 333.15 K | 0.0546
in isopropanol, 278.15 K | 0.00411
in isopropanol, 283.15 K | 0.00484
in isopropanol, 288.15 K | 0.00579
in isopropanol, 293.15 K | 0.00751
in isopropanol, 298.15 K | 0.00982
in isopropanol, 303.15 K | 0.0132
in isopropanol, 308.15 K | 0.0177
in isopropanol, 313.15 K | 0.0228
in isopropanol, 318.15 K | 0.03
in isopropanol, 323.15 K | 0.0384
in isopropanol, 328.15 K | 0.0492
in isopropanol, 333.15 K | 0.0627
in methanol, 278.15 K | 0.00641
in methanol, 283.15 K | 0.00842
in methanol, 288.15 K | 0.0105
in methanol, 293.15 K | 0.0131
in methanol, 298.15 K | 0.0174
in methanol, 303.15 K | 0.0235
in methanol, 308.15 K | 0.0305
in methanol, 313.15 K | 0.0395
in methanol, 318.15 K | 0.0514
in methanol, 323.15 K | 0.0661
in methanol, 328.15 K | 0.0842
in methanol, 333.15 K | 0.108
in n-butanol, 278.15 K | 0.00351
in n-butanol, 283.15 K | 0.00437
in n-butanol, 288.15 K | 0.00569
in n-butanol, 293.15 K | 0.00731
in n-butanol, 298.15 K | 0.00969
in n-butanol, 303.15 K | 0.0129
in n-butanol, 308.15 K | 0.0175
in n-butanol, 313.15 K | 0.0223
in n-butanol, 318.15 K | 0.0293
in n-butanol, 323.15 K | 0.0383
in n-butanol, 328.15 K | 0.0491
in n-butanol, 333.15 K | 0.0624
in n-propanol, 278.15 K | 0.00412
in n-propanol, 283.15 K | 0.00553
in n-propanol, 288.15 K | 0.00681
in n-propanol, 293.15 K | 0.00917
in n-propanol, 298.15 K | 0.0115
in n-propanol, 303.15 K | 0.0151
in n-propanol, 308.15 K | 0.0196
in n-propanol, 313.15 K | 0.0254
in n-propanol, 318.15 K | 0.0333
in n-propanol, 323.15 K | 0.0426
in n-propanol, 328.15 K | 0.0544
in n-propanol, 333.15 K | 0.0685
in toluene, 278.15 K | 0.0293
in toluene, 283.15 K | 0.0371
in toluene, 288.15 K | 0.0471
in toluene, 293.15 K | 0.0613
in toluene, 298.15 K | 0.0738
in toluene, 303.15 K | 0.0968
in toluene, 308.15 K | 0.123
in toluene, 313.15 K | 0.153
in toluene, 318.15 K | 0.195
in toluene, 323.15 K | 0.241
in toluene, 328.15 K | 0.303
in toluene, 333.15 K | 0.377
in water, 278.15 K | 3.75e-05
in water, 283.15 K | 4.65e-05
in water, 288.15 K | 5.57e-05
in water, 293.15 K | 6.69e-05
in water, 298.15 K | 8.19e-05
in water, 303.15 K | 0.000102
in water, 308.15 K | 0.000125
in water, 313.15 K | 0.000153
in water, 318.15 K | 0.000186
in water, 323.15 K | 0.000225
in water, 328.15 K | 0.000274
in water, 333.15 K | 0.000333

From BigSolDB 2.1
